Laboratory results as given in ChEMBL document CHEMBL4433269, “Design, synthesis and evaluation of biphenyl imidazole analogues as potent antifungal agents” (Bioorg Med Chem Lett, 2019).

Legend:
Aspergillus fumigatus = assay: Antifungal activity against Aspergillus fumigatus cgmcc 3.7795 assessed as inhibition of visible microbe growth by broth microdilution method; type: functional
Candida albicans [1] = assay: Antifungal activity against Candida albicans ATCC SC5314 assessed as inhibition of visible microbe growth by broth microdilution method; type: functional
Cryptococcus neoformans = assay: Antifungal activity against Cryptococcus neoformans cgmcc 2.3161 assessed as inhibition of visible microbe growth by broth microdilution method; type: functional
Candida albicans [2] = assay: Antifungal activity against Candida albicans CPCC 400523 assessed as inhibition of visible microbe growth by broth microdilution method; type: functional
Candida tropicalis = assay: Antifungal activity against Candida tropicalis cgmcc 2.3739 assessed as inhibition of visible microbe growth by broth microdilution method; type: functional
Cytochrome P450 2D6 = Cytochrome P450 2D6 (Homo sapiens, UniProt P10635); assay: Inhibition of CYP2D6 in human liver microsomes using dextromethorphan pre-incubated for 10 mins before NADPH addition and measured after 10 mins by LC/MS/MS analysis; type: ADME
U-87 MG = assay: Cytotoxicity in human U87 cells assessed as reduction in cell viability incubated for 24 hrs by MTT assay; type: cell-based, U-87MG ATCC
Cytochrome P450 3A4 = Cytochrome P450 3A4 (Homo sapiens, UniProt P08684); assay: Inhibition of CYP3A4 in human liver microsomes using midazolam pre-incubated for 10 mins before NADPH addition and measured after 10 mins by LC/MS/MS analysis; type: ADME
Cytochrome P450 2C9 = Cytochrome P450 2C9 (Homo sapiens, UniProt P11712); assay: Inhibition of CYP2C9 in human liver microsomes using diclofenac pre-incubated for 10 mins before NADPH addition and measured after 10 mins by LC/MS/MS analysis; type: ADME
A549 = assay: Cytotoxicity in human A549 cells assessed as reduction in cell viability incubated for 24 hrs by MTT assay; type: cell-based; conditions: A549, 24 h
Candida albicans [3] = assay: Antifungal activity against fluconazole-resistant Candida albicans 103 assessed as inhibition of visible microbe growth by broth microdilution method; type: functional
Candida albicans [4] = assay: Antifungal activity against fluconazole-resistant Candida albicans 100 assessed as inhibition of visible microbe growth by broth microdilution method; type: functional
Cytochrome P450 2C19 = Cytochrome P450 2C19 (Homo sapiens, UniProt P33261); assay: Inhibition of CYP2C19 in human liver microsomes using S-mephenytoin pre-incubated for 10 mins before NADPH addition and measured after 10 mins by LC/MS/MS analysis; type: ADME
Cytochrome P450 1A2 = molecular target: T1, Cytochrome P450 1A2 (Homo sapiens, UniProt P05177); assay: Inhibition of CYP1A2 in human liver microsomes using phenacetin pre-incubated for 10 mins before NADPH addition and measured after 10 mins by LC/MS/MS analysis; type: ADME
T1 sequence (P05177 whole entry): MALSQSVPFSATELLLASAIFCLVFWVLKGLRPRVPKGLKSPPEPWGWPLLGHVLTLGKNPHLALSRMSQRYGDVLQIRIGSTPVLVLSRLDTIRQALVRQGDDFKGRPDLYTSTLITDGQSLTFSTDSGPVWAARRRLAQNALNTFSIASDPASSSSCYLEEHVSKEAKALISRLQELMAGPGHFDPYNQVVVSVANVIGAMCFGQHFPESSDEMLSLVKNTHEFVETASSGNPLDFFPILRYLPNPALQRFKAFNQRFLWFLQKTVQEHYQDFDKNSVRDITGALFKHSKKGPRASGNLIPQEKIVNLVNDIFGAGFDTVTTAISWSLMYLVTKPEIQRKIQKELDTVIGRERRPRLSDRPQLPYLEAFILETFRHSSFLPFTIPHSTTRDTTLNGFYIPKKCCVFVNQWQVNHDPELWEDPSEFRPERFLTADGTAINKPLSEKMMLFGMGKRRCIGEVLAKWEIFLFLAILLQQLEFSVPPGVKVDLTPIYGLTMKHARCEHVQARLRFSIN

Sequence of Cytochrome P450 2C9 (P11712 whole entry): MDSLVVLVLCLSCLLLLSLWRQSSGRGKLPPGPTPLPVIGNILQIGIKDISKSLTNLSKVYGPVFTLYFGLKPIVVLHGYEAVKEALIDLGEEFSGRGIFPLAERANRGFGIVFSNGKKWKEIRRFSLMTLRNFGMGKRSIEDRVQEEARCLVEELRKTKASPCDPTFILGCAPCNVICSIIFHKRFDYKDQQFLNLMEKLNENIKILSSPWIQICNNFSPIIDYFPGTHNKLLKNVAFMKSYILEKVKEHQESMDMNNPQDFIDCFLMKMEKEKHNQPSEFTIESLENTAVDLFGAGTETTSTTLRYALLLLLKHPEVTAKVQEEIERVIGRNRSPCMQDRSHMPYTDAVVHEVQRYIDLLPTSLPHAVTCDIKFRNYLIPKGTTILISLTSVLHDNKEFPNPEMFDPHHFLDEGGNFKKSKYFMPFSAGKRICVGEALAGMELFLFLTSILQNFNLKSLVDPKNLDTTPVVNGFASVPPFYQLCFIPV
Sequence of Cytochrome P450 2D6 (P10635 whole entry): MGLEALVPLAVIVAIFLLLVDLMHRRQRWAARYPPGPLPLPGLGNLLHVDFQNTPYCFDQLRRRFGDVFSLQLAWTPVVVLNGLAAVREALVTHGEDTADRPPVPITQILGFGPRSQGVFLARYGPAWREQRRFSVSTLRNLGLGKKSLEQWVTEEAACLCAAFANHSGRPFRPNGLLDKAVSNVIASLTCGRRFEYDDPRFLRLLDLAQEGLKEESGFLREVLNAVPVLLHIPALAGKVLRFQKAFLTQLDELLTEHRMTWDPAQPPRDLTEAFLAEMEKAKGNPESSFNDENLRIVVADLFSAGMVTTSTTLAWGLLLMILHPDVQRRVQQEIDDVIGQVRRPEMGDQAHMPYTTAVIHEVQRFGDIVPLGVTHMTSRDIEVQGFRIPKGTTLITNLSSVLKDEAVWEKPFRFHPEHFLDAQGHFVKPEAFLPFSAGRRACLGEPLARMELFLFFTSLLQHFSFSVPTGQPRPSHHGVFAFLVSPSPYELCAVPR
Sequence of Cytochrome P450 3A4 (P08684 whole entry): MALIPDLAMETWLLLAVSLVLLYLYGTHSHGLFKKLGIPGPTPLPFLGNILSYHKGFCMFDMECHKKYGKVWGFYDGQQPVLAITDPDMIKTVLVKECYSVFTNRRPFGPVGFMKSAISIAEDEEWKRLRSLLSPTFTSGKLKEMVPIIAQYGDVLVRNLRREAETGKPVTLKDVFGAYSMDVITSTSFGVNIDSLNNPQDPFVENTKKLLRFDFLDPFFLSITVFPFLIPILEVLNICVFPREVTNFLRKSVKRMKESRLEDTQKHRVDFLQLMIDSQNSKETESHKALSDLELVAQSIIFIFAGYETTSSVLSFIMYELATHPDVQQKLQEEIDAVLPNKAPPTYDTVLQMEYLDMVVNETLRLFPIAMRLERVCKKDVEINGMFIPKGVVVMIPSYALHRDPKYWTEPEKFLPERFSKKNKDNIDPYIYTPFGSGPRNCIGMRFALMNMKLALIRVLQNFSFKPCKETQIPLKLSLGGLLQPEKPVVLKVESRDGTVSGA
Sequence of Cytochrome P450 2C19 (P33261 whole entry): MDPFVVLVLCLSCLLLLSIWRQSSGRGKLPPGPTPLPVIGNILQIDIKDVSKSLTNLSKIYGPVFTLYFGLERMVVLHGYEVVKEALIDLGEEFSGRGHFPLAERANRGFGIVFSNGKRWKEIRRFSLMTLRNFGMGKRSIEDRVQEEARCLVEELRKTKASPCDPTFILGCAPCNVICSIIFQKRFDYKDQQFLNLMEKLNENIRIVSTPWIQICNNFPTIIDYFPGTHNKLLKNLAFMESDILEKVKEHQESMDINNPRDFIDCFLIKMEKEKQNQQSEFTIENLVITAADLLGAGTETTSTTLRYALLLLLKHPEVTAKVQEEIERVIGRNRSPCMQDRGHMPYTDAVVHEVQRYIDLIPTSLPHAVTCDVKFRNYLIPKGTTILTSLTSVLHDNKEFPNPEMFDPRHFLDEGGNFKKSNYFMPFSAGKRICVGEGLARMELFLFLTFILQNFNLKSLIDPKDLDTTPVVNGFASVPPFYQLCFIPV

Row | SMILES | MIC (Aspergillus fumigatus) [µg/mL] | MIC (Candida albicans [1]) [µg/mL] | MIC (Cryptococcus neoformans) [µg/mL] | MIC (Candida albicans [2]) [µg/mL] | MIC (Candida tropicalis) [µg/mL] | IC50 (Cytochrome P450 2D6) [µM] | IC50 (U-87 MG) [µM] | IC50 (Cytochrome P450 3A4) [µM] | IC50 (Cytochrome P450 2C9) [µM] | IC50 (A549) [µM] | MIC (Candida albicans [3]) [µg/mL] | MIC (Candida albicans [4]) [µg/mL] | IC50 (Cytochrome P450 2C19) [µM] | IC50 (Cytochrome P450 1A2) [µM]
1 | CC(C)COC(=O)[C@H](Cn1ccnc1)NC(=O)c1ccc(-c2ccccc2)cc1F | 8 | 0.25 | > 16 | 0.0312 | 0.0312 |  |  |  |  |  |  |  |  | 
2 | CC(C)OC(=O)[C@H](Cn1ccnc1)NC(=O)c1ccc(-c2ccccc2)c(Cl)c1 | > 16 | 8 | 8 | 8 | 1 |  |  |  |  |  |  |  |  | 
3 | CC(C)OC(=O)[C@H](Cn1ccnc1)NC(=O)c1ccc(-c2ccccc2)c(F)c1 | 2 | 0.5 | 8 | 0.0312 | 0.0312 | > 50 | > 50 | 4.05 | > 50 | > 50 | 2 | 8 | 43.4 | > 50
4 | CC(C)OC(=O)[C@H](Cn1ccnc1)NC(=O)c1c(F)cc(-c2ccccc2)cc1F | > 16 | 0.5 | > 16 | 2 | 0.5 |  |  |  |  |  |  |  |  | 
5 | CC(C)COC(=O)[C@H](Cn1ccnc1)NC(=O)c1ccc(-c2ccccc2F)c(F)c1 | > 16 | 0.25 | > 16 | 0.0625 | 0.0625 |  |  |  |  |  | 4 | 8 |  | 
6 | CC(C)OC(=O)[C@H](Cn1ccnc1)NC(=O)c1ccc(-c2ccccc2F)c(F)c1 | > 16 | 0.0625 | 8 | 0.0312 | 0.0312 |  |  |  |  |  | 2 | 16 |  | 
7 | CC(C)COC(=O)[C@H](Cn1ccnc1)NC(=O)c1ccc(-c2ccccc2)c(F)c1 | 4 | 0.25 | > 16 | 0.0312 | 0.0312 |  |  |  |  |  |  |  |  | 
8 | COc1cc(-c2ccccc2)ccc1C(=O)N[C@@H](Cn1ccnc1)C(=O)OC(C)C | > 16 | 8 | > 16 | 1 | 1 |  |  |  |  |  |  |  |  | 
9 | Cc1cc(-c2ccccc2)ccc1C(=O)N[C@@H](Cn1ccnc1)C(=O)OCC(C)C | > 16 | > 16 | > 16 | 2 | 0.5 |  |  |  |  |  |  |  |  | 
10 | Cc1cc(-c2ccccc2)ccc1C(=O)N[C@@H](Cn1ccnc1)C(=O)OC(C)C | > 16 | > 16 | > 16 | 2 | 0.5 |  |  |  |  |  |  |  |  | 
11 | CC(C)OC(=O)[C@H](Cn1ccnc1)NC(=O)c1ccc(-c2ccccc2F)cc1F | > 16 | 0.5 | > 16 | 0.125 | 0.25 |  |  |  |  |  |  |  |  | 
12 | CC(C)OC(=O)[C@H](Cn1ccnc1)NC(=O)c1ccc(-c2ccc(C#N)cc2)cc1F | > 16 | 8 | > 16 | 4 | 2 |  |  |  |  |  |  |  |  | 
13 | CC(C)OC(=O)[C@H](Cn1ccnc1)NC(=O)c1ccc(-c2ccccc2)cc1Cl | > 16 | 4 | 8 | 8 | 0.5 |  |  |  |  |  |  |  |  | 
14 | CC(C)COC(=O)[C@H](Cn1ccnc1)NC(=O)c1ccc(-c2ccccc2)c(Cl)c1 | > 16 | 4 | 8 | 8 | 0.25 |  |  |  |  |  |  |  |  | 
15 | CC(C)OC(=O)[C@H](Cn1ccnc1)NC(=O)c1ccc(-c2ccccc2)cc1F | 4 | 0.25 | > 16 | 0.0312 | 0.0312 | 19.1 | > 50 | 0.0429 | 4.49 | > 50 | 4 | 16 | 7.44 | > 50
16 | CC(C)COC(=O)[C@H](Cn1ccnc1)NC(=O)c1ccc(-c2ccc(C#N)cc2)cc1F | > 16 | > 16 | > 16 | > 16 | 0.5 |  |  |  |  |  |  |  |  | 
17 | Cc1cc(C(=O)N[C@@H](Cn2ccnc2)C(=O)OC(C)C)ccc1-c1ccccc1 | > 16 | > 16 | > 16 | > 16 | 8 |  |  |  |  |  |  |  |  | 
18 | CC(C)COC(=O)[C@H](Cn1ccnc1)NC(=O)c1ccc(-c2ccccc2)cc1Cl | > 16 | 4 | 8 | 8 | 0.25 |  |  |  |  |  |  |  |  | 
19 | Cc1cc(C(=O)N[C@@H](Cn2ccnc2)C(=O)OCC(C)C)ccc1-c1ccccc1 | > 16 | > 16 | > 16 | > 16 | 4 |  |  |  |  |  |  |  |  | 
20 | CC(C)COC(=O)[C@H](Cn1ccnc1)NC(=O)c1ccc(-c2ccccc2F)cc1F | > 16 | 0.5 | > 16 | 0.125 | 0.25 |  |  |  |  |  |  |  |  | 
21 | COc1cc(-c2ccccc2)ccc1C(=O)N[C@@H](Cn1ccnc1)C(=O)OCC(C)C | > 16 | > 16 | > 16 | 4 | 2 |  |  |  |  |  |  |  |  | 
22 | CC(C)COC(=O)[C@H](Cn1ccnc1)NC(=O)c1c(F)cc(-c2ccccc2)cc1F | > 16 | 0.5 | > 16 | 2 | 2 |  |  |  |  |  |  |  |  | 
23 | OC(Cn1cncn1)(Cn1cncn1)c1ccc(F)cc1F [FLUCONAZOLE] | > 16 | 0.5 | 4 | 1 | 1 |  |  |  |  |  | > 64 | > 64 |  | 
24 | CCC(C)n1ncn(-c2ccc(N3CCN(c4ccc(OCC5COC(Cn6cncn6)(c6ccc(Cl)cc6Cl)O5)cc4)CC3)cc2)c1=O (centres undefined) [ITRACONAZOLE] | 4 | 0.0625 | 1 | 0.25 | 0.5 |  |  |  |  |  |  |  |  | 
